Consider 1 compound from patent US20110263016A1, “Expansion of Embryonic Stem Cells” (priority 2008, published 2011).

Assay [1] has as its system hESCs. The settings on record: cited from earlier work.
For assay [2], the system named is H9 hESCs. Put plainly: Expansion of hESCs in stirred suspension bioreactors. In kind it is cell-based, human. On the procedure: Bioreactor Maintenance of hESCs. H9 cells passaged in static on Matrigel™ or using feeder layers were pre-treated for 1 hr with 10 μM Y-27632 (Sigma), then dissociated as described earlier. The hESCs were then inoculated into 125 ml bioreactors (NDS Technologies) at 1.8×10^4 cells/ml. The bioreactors contained 100 ml of mTeSR medium supplemented with 10 μM Y-27632 and 0.1 nM Rapamycin (Sigma), were agitated at 100 rpm and were incubated under standard conditions (37° C., 5% CO2, saturated humidity). After 24 hrs in suspension culture, the Y-27632 was removed and replaced with mTeSR medium containing 0.1 nM Rapamycin. […] The single cell suspension of hESCs was split 1:5 and inoculated into a new bioreactor containing 100 ml of mTeSR medium supplemented with 10 μM Y-27632 and 0.1 nM Rapamycin for 24 hrs.
In the bioreactor systems, hESCs (collected from static cultures containing Matrigel™ or human foreskin fibroblast feeder (HFF) cells) were inoculated at 1.8×10^4 cells/ml into 100 ml of mTeSR medium (Stemcell Technologies Inc.) and agitated at 100 rpm.

For `C[C@@H](N)[C@H]1CC[C@H](C(=O)Nc2ccncc2)CC1` [Y-27632], the “survival rate of dissociated, single hESCs” value in assay [1] is recorded as “increases the survival rate”. Moreover, the hESC aggregate formation entry in assay [2] (10 μM ROCK inhibitor and 0.1 nM Rapamycin together, 1.8×10^4 cells/ml, mTeSR, 100 rpm) is listed as “form tight aggregates”. The “hESC aggregate formation when the inhibitor is left out” value in assay [2] (ROCK inhibitor excluded from bioreactor cultures, by day 5, data not shown) is “noticeably fewer aggregates were observed and mainly single cells were observed by day 5”. Also, the “lag phase of the cultures” value in assay [2] (exposure to ROCK inhibitor decreased from 4 days to 24 hrs) is “substantial decrease in the lag phase”. Also, the overall expansion in assay [2] (non-passaged cultures, ROCK inhibitor day 0 to day 4, collagenase every 5 days, over 20 days) amounted to 67 fold.
